Values joined by “and” are separate entries in the source; they are usually repeats but may differ in a detail not shown here. Equal values may be shown once.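 48-hour exposure; five concentrations; linearly interpolated endpoints. Abbreviation: GI50, concentration required for 50% inhibition of growth.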 Active and inactive are the calls of the source. No stated cut-off is given here; in the data, active = GI50 up to about 1.1 µM and inactive = higher.
How the values were obtained:
Experiment in all cases: DTP human tumour cell line panel, 48 h
[1] = system: 786-0
[2] = system: ACHN
[3] = system: BT-549
[4] = system: EKVX
[5] = system: HCT-116
[6] = system: HL-60
[7] = system: IGROV-1
[8] = system: M14
[9] = system: MDA-MB-435
[10] = system: MOLT-4
[11] = system: NCI-H226
[12] = system: NCI-H460
[13] = system: NCI-H522
[14] = system: OVCAR-3
[15] = system: SF-268
[16] = system: SK-OV-3
[17] = system: UACC-257
[18] = system: UACC-62
[19] = system: UO-31
[20] = system: T47D

Measured: GI50

C=C1CCC([N+](=O)[O-])[C@](C)(N=O)CC[C@@H]2C1CC2(C)C (stereo not given in full)
inactive: [1] 20.6 µM | [2] 37 µM | [3] 14.4 µM | [4] 19 µM | [5] 14.8 µM | [6] 5.43 µM | [7] 24.4 µM | [8] 27.4 µM | [9] > 10 µM | [10] 20.5 µM | [11] 16 µM | [12] 19.1 µM | [13] 19.4 µM | [14] 23.6 µM | [15] 31.3 µM | [16] 57.7 µM | [17] 23 µM | [18] > 10 µM | [19] 16.3 µM

CCOP(=O)(OCC)C(Cc1ccc(Cl)cc1)NS(=O)(=O)c1ccc(C)cc1 (stereo not given)
inactive: [1] > 100 µM | [2] > 100 µM | [3] > 100 µM | [4] > 100 µM | [6] > 100 µM | [7] > 100 µM | [8] > 100 µM | [9] > 100 µM | [10] > 100 µM | [12] > 100 µM | [13] 67.9 µM | [14] > 100 µM | [15] > 100 µM | [16] > 100 µM | [20] > 100 µM | [17] 35.5 µM | [18] > 100 µM

CC1=NN(C(=O)CC(=O)Nc2cccc(C)c2)C(=O)C1/N=N/c1ccc(C(=O)O)cc1 (stereo not given)
inactive: [1] > 100 µM | [2] > 100 µM | [3] > 100 µM | [4] > 100 µM | [5] > 100 µM | [6] > 100 µM | [7] > 100 µM | [8] > 100 µM | [9] > 100 µM | [13] > 100 µM | [14] > 100 µM | [15] > 100 µM | [20] > 100 µM | [17] > 100 µM | [18] > 100 µM | [19] 64.4 µM

c1ccc(C(NC2CCCCC2NCCNC2CCCCC2NC(c2ccccc2)(c2ccccc2)c2ccccc2)(c2ccccc2)c2ccccc2)cc1 (stereo not given)
inactive: [2] 90.2 µM | [3] 17.5 µM | [4] 87.9 µM | [5] 20.1 µM | [7] 26.8 µM | [9] 17.7 µM | [10] 47.8 µM | [12] 26.8 µM | [13] 14.6 µM | [14] 39.5 µM | [15] 21.3 µM | [16] 17.8 µM | [20] 11.7 µM | [17] > 100 µM | [18] 26.2 µM | [19] 20.4 µM

Cc1cc(C)c(S(=O)(=O)N(CCCN)OCCCN)c(C)c1
inactive: [2] > 100 µM | [3] > 100 µM | [4] > 100 µM | [5] > 100 µM | [7] > 100 µM | [8] 31.4 µM | [9] > 100 µM | [10] > 100 µM | [11] > 100 µM | [12] > 100 µM | [14] 56 µM | [15] > 100 µM | [16] > 100 µM | [20] > 100 µM | [17] > 100 µM | [18] > 100 µM | [19] > 100 µM

COc1ccc(OC)c(C(=O)c2cccc(C(=O)c3cc(OC)ccc3OC)n2)c1
inactive: [1] 68.9 µM | [2] 43.5 µM | [3] 22.9 µM | [4] 41.1 µM | [5] 43.9 µM | [6] 18.5 µM | [7] 38.8 µM | [8] 33.6 µM | [10] 30.8 µM | [11] 27.3 µM | [12] 36.3 µM | [13] 29.8 µM | [15] 63.4 µM | [16] 46.1 µM | [20] 29.6 µM | [17] 53.2 µM | [18] 31.1 µM | [19] 17.9 µM

CSc1ccc(/C=C2\N=C(c3ccccc3)N(/N=C3\C(=O)Nc4ccccc43)C2=O)cc1
inactive: [1] > 100 µM | [2] > 100 µM | [3] > 100 µM | [4] 38.7 µM | [5] > 100 µM | [6] > 100 µM | [7] > 100 µM | [8] > 100 µM | [9] > 100 µM | [10] 29.7 µM | [12] > 100 µM | [13] > 100 µM | [14] 83.6 µM | [15] > 100 µM | [16] > 100 µM | [20] > 100 µM | [17] > 100 µM | [18] > 100 µM | [19] > 100 µM

Cc1cc(C)c2c(c1)C(=O)C1(C2)Cc2c(ccc(C)c2C)C1=O (stereo not given)
inactive: [1] > 100 µM | [2] > 100 µM | [3] > 100 µM | [4] > 100 µM | [5] > 100 µM | [6] > 100 µM | [7] > 100 µM | [8] > 100 µM | [9] > 100 µM | [10] > 100 µM | [11] > 100 µM | [12] > 100 µM | [13] 43.8 µM | [14] 14.3 µM | [15] > 100 µM | [20] > 100 µM | [17] > 100 µM | [18] > 100 µM | [19] > 100 µM

CCOC(=O)C1=CNC(C(=O)OCC)C1c1cccn1-c1ccccc1 (stereo not given)
inactive: [1] 32.5 µM | [2] 30.5 µM | [3] 36.7 µM | [4] 35.8 µM | [5] 23.6 µM | [7] 33 µM | [8] 32.9 µM | [9] 21.2 µM | [10] 19.8 µM | [11] 23.3 µM | [12] 29.4 µM | [13] 21.3 µM | [14] 26.1 µM | [15] 31.3 µM | [20] 25.8 µM | [17] 35.7 µM | [18] 24.4 µM | [19] 20.7 µM

COc1ccc(-c2nc(SC)n(C3OC(COC(C)=O)C(OC(C)=O)C(OC(C)=O)C3OC(C)=O)c(=O)c2C#N)cc1 (stereo not given)
inactive: [1] 64.3 µM | [3] > 100 µM | [4] > 100 µM | [5] > 100 µM and 91.2 µM | [6] > 100 µM | [7] > 100 µM | [8] 58.1 µM | [9] > 100 µM | [10] 68.4 µM | [11] > 100 µM | [20] 95.7 µM | [17] > 100 µM | [19] 27 µM and 25.6 µM

CCC(=O)NC(Nc1ccccc1F)(C(F)(F)F)C(F)(F)F
inactive: [2] > 100 µM | [3] > 100 µM | [4] > 100 µM | [5] > 100 µM | [6] > 100 µM | [7] > 100 µM | [8] > 100 µM | [9] > 100 µM | [10] > 100 µM | [12] > 100 µM | [13] > 100 µM | [14] > 100 µM | [15] > 100 µM | [16] > 100 µM | [20] 40.9 µM | [17] > 100 µM | [18] 40.6 µM | [19] > 100 µM

Reference: ChEMBL document CHEMBL1201862, “PubChem BioAssay data set” (2004)
